According to patent US11464770B2, “Anticancer pharmaceutical composition” (NATIONAL CANCER CENTER, priority 2016, dated 2022):
Where two headings read alike, the source gives them in different places.

What was measured:
[1] = system: liver cancer cell lines; assay: Cell based assay, cell viability (CellTiter-Glo), liver cancer cell lines; details: Homo sapiens, SK-HEP1; SK-HEP-1 cell line
Procedure: (§1) Commercially available bladder cancer, prostate cancer, lung cancer, breast cancer, blood cancer, pancreatic cancer, colorectal cancer, brain cancer, neuroblastoma, melanoma, liver cancer, cervical carcinoma, ovarian cancer, renal cancer, and papilloma cell lines were each treated with trypsin-EDTA and cultured, followed by being seeded in each well of a 96 well plate. After 24 hours of treatment at constant temperature, the respective cells were treated with the candidate compound so that a final concentration became 0 to 2 μM. The treated cells were additionally cultured for 72 hours, and cell viability was measured by using an ATP detection method (CellTiter-Glo® Luminescent Cell Viability Assay, Promega).

[2] = system: lung cancer cell lines (e.g. NCI-H23, NCI-H1229); assay: Cell based assay, cell viability (CellTiter-Glo), lung cancer cell lines; details: Homo sapiens, 72 hours treatment, CellTiter-Glo
Procedure: as §1

[3] = A549 cells, read-out: IC50, lung cancer cell line A549
[4] = DMS 114 cells, read-out: IC50, lung cancer cell line DMS 114
[5] = NCI-H23 cells, read-out: IC50, lung cancer cell line NCI-H23
[6] = NCI-H460 cells, read-out: IC50, lung cancer cell line NCI-H460
[7] = NCI-H522 cells, read-out: IC50, lung cancer cell line NCI-H522
[8] = NCI-H1299 cells, read-out: IC50, lung cancer cell line NCI-H1299
[9] = NCI-H1437 cells, read-out: IC50, lung cancer cell line NCI-H1437

Compound	IC50 [1]	IC50 [2, 3]	IC50 [2, 4]	IC50 [2, 5]	IC50 [2, 6]	IC50 [2, 7]	IC50 [2, 8]	IC50 [2, 9]	IC50 ([2]; MRC-5 cells, read-out: IC50)
CC(=O)c1c([S+]([O-])Cc2ccccc2)nc2c(Br)ccc(Cl)c2c1O (stereo not drawn) [Compound 4]	1.13 µM	1.97 µM	> 2 µM	0.92 µM	1.65 µM	> 2 µM	1.4 µM	> 2 µM	0.91 µM
CC(=O)c1c([S+]([O-])Cc2ccc(Cl)cc2)[nH]c2c(Br)ccc(Cl)c2c1=O (stereo not drawn) [Compound 11, 3-acetyl-8-bromo-5-chloro-2-((4-chlorobenzyl)sulfinyl)quinolin-4(1H)-one]	> 2 µM	> 2 µM	> 2 µM	1.55 µM	> 2 µM	> 2 µM	> 2 µM	> 10 µM	> 2 µM
CC(=O)c1c(Sc2ccccc2)[nH]c2c(Br)ccc(Cl)c2c1=O [Compound 12, 3-acetyl-8-bromo-5-chloro-2-(phenylthio)quinolin-4(1H)-one]	> 2 µM	> 2 µM	> 2 µM	> 2 µM	> 2 µM	> 2 µM	> 2 µM	> 10 µM	> 2 µM
CC(=O)c1c([S+]([O-])c2ccccc2)[nH]c2c(Br)ccc(Cl)c2c1=O (stereo not drawn) [Compound 13, 3-acetyl-8-bromo-5-chloro-2-(phenylsulfinyl)quinolin-4(1H)-one]	> 2 µM	> 2 µM	> 2 µM	> 2 µM	> 2 µM	> 2 µM	> 2 µM	> 10 µM	> 2 µM
COc1ccccc1Sc1[nH]c2c(Br)ccc(Cl)c2c(=O)c1C(C)=O [Compound 14, 3-acetyl-8-bromo-5-chloro-2-((2-methoxyphenyl)thio)quinolin-4(1H)-one]	> 2 µM	> 2 µM	> 2 µM	> 2 µM	> 2 µM	> 2 µM	> 2 µM	> 10 µM	> 2 µM
COc1ccccc1[S+]([O-])c1[nH]c2c(Br)ccc(Cl)c2c(=O)c1C(C)=O (stereo not drawn) [Compound 15, 3-acetyl-8-bromo-5-chloro-2-((2-methoxyphenyl)sulfinyl)quinolin-4(1H)-one]	> 2 µM	> 2 µM	> 2 µM	1.56 µM	> 2 µM	> 2 µM	> 2 µM	> 10 µM	> 2 µM
CC(=O)c1c(Sc2ccc(Br)cc2)[nH]c2c(Br)ccc(Cl)c2c1=O [Compound 16, 3-acetyl-8-bromo-2-((4-bromophenyl)thio)-5-chloroquinolin-4(1H)-one]	> 2 µM	> 2 µM	> 2 µM	> 2 µM	> 2 µM	> 2 µM	> 2 µM	> 10 µM	> 2 µM
CC(=O)c1c([S+]([O-])c2ccc(Br)cc2)[nH]c2c(Br)ccc(Cl)c2c1=O (stereo not drawn) [Compound 17, 3-acetyl-8-bromo-2-((4-bromophenyl)sulfinyl)-5-chloroquinolin-4(1H)-one]	> 2 µM	> 2 µM	> 2 µM	> 2 µM	> 2 µM	> 2 µM	> 2 µM	> 10 µM	> 2 µM
CSc1c(C(C)=O)c(=O)c2c(Cl)ccc(Br)c2n1C(C)=O [Compound 18, 1,1′-(8-bromo-5-chloro-2-(methylthio)-4-oxoquinoline-1,3(4H)-diyl)bis(ethan-1-one)]	> 2 µM	> 2 µM	> 2 µM	> 2 µM	> 2 µM	> 2 µM	> 2 µM	> 10 µM	> 2 µM
CC(=O)c1c([S+](C)[O-])n(C(C)=O)c2c(Br)ccc(Cl)c2c1=O (stereo not drawn) [Compound 19, 1,1′-(8-bromo-5-chloro-2-(methylsulfinyl)-4-oxoquinoline-1,3(4H)-diyl)bis(ethan-1-one)]	> 2 µM	> 2 µM	> 2 µM	> 2 µM	> 2 µM	> 2 µM	> 2 µM	> 10 µM	> 2 µM
CC(=O)c1c([S+]([O-])Cc2ccccc2)n(C(=O)c2ccc(Br)cc2)c2c(Br)ccc(Cl)c2c1=O (stereo not drawn) [Compound 20, 3-acetyl-2-(benzylsulfinyl)-8-bromo-1-(4-bromobenzoyl)-5-chloroquinolin-4(1H)-one]	> 2 µM	> 2 µM	> 2 µM	1.39 µM	1.58 µM	> 2 µM	1.58 µM	> 2 µM	> 2 µM
CC(=O)c1c(S(C)(=O)=O)n(C(=O)c2ccc(Br)cc2)c2c(Br)ccc(Cl)c2c1=O [Compound 21, 3-acetyl-8-bromo-1-(4-bromobenzoyl)-5-chloro-2-(methylsulfonyl)quinolin-4(1H)-one]	> 2 µM	> 2 µM	> 2 µM	> 2 µM	> 2 µM	> 2 µM	> 2 µM	> 10 µM	> 2 µM
CC(=O)c1c([S+](C)[O-])n(Cc2ccc(F)c(Cl)c2)c2c(Br)ccc(Cl)c2c1=O (stereo not drawn) [Compound 22, 3-acetyl-8-bromo-5-chloro-1-(3-chloro-4-fluorobenzyl)-2-(methylsulfinyl)quinolin-4(1H)-one]	> 2 µM	> 2 µM	> 2 µM	> 2 µM	> 2 µM	> 2 µM	> 2 µM	> 10 µM	> 2 µM
CC(=O)c1c(SCc2ccccc2)n(C(=O)c2ccc(Br)cc2)c2c(Br)ccc(Cl)c2c1=O [Compound 23, 3-acetyl-2-(benzylthio)-8-bromo-1-(4-bromobenzoyl)-5-chloroquinolin-4(1H)-one]	> 2 µM	> 2 µM	> 2 µM	> 2 µM	> 2 µM	> 2 µM	> 2 µM	> 10 µM	> 2 µM
CC(=O)c1c(SC(C)C)[nH]c2c(Br)ccc(Cl)c2c1=O [Compound 24, 3-acetyl-8-bromo-5-chloro-2-(isopropylthio)quinolin-4(1H)-one]	> 2 µM	> 2 µM	> 2 µM	> 2 µM	> 2 µM	> 2 µM	> 2 µM	> 10 µM	> 2 µM
CC(=O)c1c([S+]([O-])C(C)C)[nH]c2c(Br)ccc(Cl)c2c1=O (stereo not drawn) [Compound 25, 3-acetyl-8-bromo-5-chloro-2-(isopropylsulfinyl)quinolin-4(1H)-one]	> 2 µM	> 2 µM	> 2 µM	> 2 µM	> 2 µM	> 2 µM	> 2 µM	> 10 µM	> 2 µM
CC(=O)c1c([S+]([O-])C(C)c2ccccc2)[nH]c2c(Br)ccc(Cl)c2c1=O (stereo not drawn) [Compound 26, 3-acetyl-8-bromo-5-chloro-2-((1-phenylethyl)sulfinyl)quinolin-4(1H)-one]	> 2 µM	> 2 µM	> 2 µM	> 2 µM	> 2 µM	> 2 µM	> 2 µM	> 10 µM	> 2 µM

Further lines, with some results ahead:

IC50 [1]	IC50 [2, 3]	IC50 [2, 4]	IC50 [2, 5]	IC50 [2, 6]	IC50 [2, 7]	IC50 [2, 8]	IC50 [2, 9]	Compound	IC50 ([2]; MRC-5 cells, read-out: IC50)
1.23 µM	> 2 µM	> 2 µM	1.34 µM	> 2 µM	> 2 µM	1.88 µM	> 10 µM	CC(=O)c1c([S+](C)[O-])[nH]c2c(Br)ccc(Cl)c2c1=O (stereo not drawn) [Compound 1, 3-acetyl-8-bromo-5-chloro-2-(methylsulfinyl)quinolin-4(1H)-one]	1.34 µM
> 2 µM	> 2 µM	> 2 µM	> 2 µM	> 2 µM	> 2 µM	> 2 µM	> 10 µM	CSc1[nH]c2c(Br)ccc(Cl)c2c(=O)c1C(C)=O [Compound 2, 3-acetyl-8-bromo-5-chloro-2-(methylthio)quinolin-4(1H)-one]	> 2 µM
> 2 µM	> 2 µM	> 2 µM	> 2 µM	> 2 µM	> 2 µM	> 2 µM	> 10 µM	CC(=O)c1c(SCc2ccccc2)[nH]c2c(Br)ccc(Cl)c2c1=O [Compound 3, 3-acetyl-2-(benzylthio)-8-bromo-5-chloroquinolin-4(1H)-one]	> 2 µM
> 2 µM	> 2 µM	> 2 µM	> 2 µM	> 2 µM	> 2 µM	> 2 µM	> 10 µM	CSc1c(C(C)=O)c(=O)c2c(Cl)ccc(Br)c2n1C [Compound 5, 3-acetyl-8-bromo-5-chloro-1-methyl-2-(methylthio)quinolin-4(1H)-one]	> 2 µM
1.38 µM	> 2 µM	> 2 µM	1.31 µM	> 2 µM	> 2 µM	1.84 µM	> 10 µM	CC(=O)c1c([S+](C)[O-])[nH]c2c(Cl)ccc(Cl)c2c1=O (stereo not drawn) [Compound 6, 3-acetyl-5,8-dichloro-2-(methylsulfinyl)quinolin-4(1H)-one]	> 2 µM
> 2 µM	> 2 µM	> 2 µM	> 2 µM	> 2 µM	> 2 µM	> 2 µM	> 10 µM	CSc1c(C(C)=O)c(=O)c2cc(F)ccc2n1C [Compound 7, 3-acetyl-6-fluoro-1-methyl-2-(methylthio)quinolin-4(1H)-one]	> 2 µM
> 2 µM	> 2 µM	> 2 µM	> 2 µM	> 2 µM	> 2 µM	> 2 µM	> 10 µM	CSc1[nH]c2ccc(F)cc2c(=O)c1C(C)=O [Compound 8, 1-(6-fluoro-4-hydroxy-2-(methylthio)quinolin-3-yl)ethan-1-one]	> 2 µM
0.99 µM	> 2 µM	> 2 µM	0.9 µM	> 2 µM	> 2 µM	1.26 µM	> 10 µM	CC(=O)c1c([S+](C)[O-])n(C(=O)c2ccc(Br)cc2)c2c(Br)ccc(Cl)c2c1=O (stereo not drawn) [Compound 9, 3-acetyl-8-bromo-1-(4-bromobenzoyl)-5-chloro-2-(methylsulfinyl)quinolin-4(1H)-one]	> 2 µM
> 2 µM	> 2 µM	> 2 µM	> 2 µM	> 2 µM	> 2 µM	> 2 µM	> 10 µM	CC(=O)c1c(SCc2ccc(Cl)cc2)[nH]c2c(Br)ccc(Cl)c2c1=O [Compound 10, 3-acetyl-8-bromo-5-chloro-2-((4-chlorobenzyl)thio)quinolin-4(1H)-one]	> 2 µM
